Patent publication US5149707A, “1-((2-fluorophenyl)(4-fluorophenyl)phenylmethyl)-1H-imidazole useful as antifungal agent” (J. Uriach & Cia, S.A., priority 1988, dated 1992)
Converted amounts (≈) assume the structure as drawn. Like-named read-outs stand apart in the source and are kept apart here.

Assays:
Format in all cases: cell-based
[1] = test system: Aspergillus flavus; test: In vitro antifungal activity (MIC), agar dilution
Description: (§1) The antifungal activity of 1-[(2-fluorophenyl)(4-fluorophenyl)phenylmethyl]-1H-imidazole was shown by its ability to inhibit the growth of different species of yeast and filamentous fungi in vitro. The activity was recorded as the MIC value, that is, the minimum amount of product needed to achieve the complete inhibition of the in vitro growth of the test organism. Testing was performed as follows: a solution of the antifungal agent in ethanol was diluted with DST agar (pH 6.5) or Emmon's Sabouraud dextrose agar to obtain concentrations between 10 and 0.01 mcg/ml, or 80 and 0.16 mcg/m, respectively. The inoculum was standarized in order 1×10^5 cfu/ml, and 10 mcl of each organism was seeded into the agar surface. Incubation was then allowed at 30° C. during 3 days (DST) or 2 days (Emmon's) for yeasts and 10 days for filamentous fungi. Following incubation, the zones of inhibition were measured and compared to an inoculated, drug-free control to yield the MIC value.

[2] = test system: C. albicans serotipo B; test: In vitro antifungal activity (MIC), agar dilution; settings: Candida albicans, read-out: MIC
Description: as §1

[3] = test system: C. guilliermondii (clinica); test: In vitro antifungal activity (MIC), agar dilution
Description: as §1

[4] = test system: C. guilliermondii SQ 2210; test: In vitro antifungal activity (MIC), agar dilution; settings: Meyerozyma guilliermondii, read-out: MIC
Description: as §1

[5] = test system: C. parapsilosis (clinica); test: In vitro antifungal activity (MIC), agar dilution; settings: Lodderomyces parapsilosis, read-out: MIC
Description: as §1

[6] = test system: Microsporum audouini ATCC 9079; test: In vitro antifungal activity (MIC), agar dilution
Description: as §1

[7] = test system: Microsporum canis (clinica); test: In vitro antifungal activity (MIC), agar dilution
Description: as §1

[8] = test system: Microsporum gypseum (-); test: In vitro antifungal activity (MIC), agar dilution; settings: Nannizzia gypsea
Description: as §1

[9] = test system: Microsporum gypseum; test: In vitro antifungal activity (MIC), agar dilution; settings: Nannizzia gypsea
Description: as §1

[10] = test system: S. cerevisiae ATCC 9763; test: In vitro antifungal activity (MIC), agar dilution; settings: Saccharomyces cerevisiae, read-out: MIC
Description: as §1

[11] = test system: T. glabrata (clinica); test: In vitro antifungal activity (MIC), agar dilution; settings: Nakaseomyces glabratus, read-out: MIC
Description: as §1

[12] = test system: T. mentagrophytes (clinica) (1); test: In vitro antifungal activity (MIC), agar dilution; settings: Trichophyton mentagrophytes, read-out: MIC
Description: as §1

[13] = test system: T. mentagrophytes (clinica) (2); test: In vitro antifungal activity (MIC), agar dilution; settings: Trichophyton mentagrophytes, read-out: MIC
Description: as §1

[14] = test system: T. mentagrophytes (clinica) (3); test: In vitro antifungal activity (MIC), agar dilution; settings: Trichophyton mentagrophytes, read-out: MIC
Description: as §1

[15] = test system: T. mentagrophytes (clinica) (5); test: In vitro antifungal activity (MIC), agar dilution; settings: Trichophyton mentagrophytes, read-out: MIC
Description: as §1

[16] = test system: T. mentagrophytes ATCC 9129; test: In vitro antifungal activity (MIC), agar dilution; settings: Trichophyton mentagrophytes, read-out: MIC
Description: as §1

[17] = test system: C. albicans; test: MIC distribution, serial dilutions in Sabouraud gentamycin broth, microplates; settings: # of strains = 50
Description: (§2) The antifungal activity of 1-[(2-fluorophenyl)(4-fluorophenyl)phenylmethyl]-1H-imidazole and bifonazole was determined by serial dilutions in Sabouraud gentamycin broth using microplates. The antifungal agent was diluted in 50% ethanol to obtain concentrations between 40 and 0.015 mcg/ml. Inoculum was 10^7 cfu/ml for yeast and 10^6 cfu/ml for dermatophytes. Incubation was allowed at 37° C. during 2 days for yeasts, and at 29° C. during 7 days for dermatophytes. MIC's were determined as in example 18. The MIC distributions obtained in 9 organisms are shown in the next tables.

[18] = test system: C. guilliermondii; test: as above; settings: # of strains = 5
Description: as §2

[19] = test system: C. krusei; test: as above; settings: # of strains = 5
Description: as §2

[20] = test system: C. parapsilosis; test: as above; settings: # of strains 10 = UR-4056/14 = Bifonazole
Description: as §2

[21] = test system: C. tropicalis; test: as above; settings: # of strains = 30
Description: as §2

[22] = test system: M. canis; test: as above; settings: # of strains = 13
Description: as §2

[23] = test system: T. glabrata; test: as above; settings: # of strains = 10 = UR-4056/15 Bifonzaole
Description: as §2

[24] = test system: T. mentagrohytes; test: as above; settings: # of strains = 17
Description: as §2

[25] = test system: T. rubrum; test: as above; settings: # of strains = 6
Description: as §2

[26] = Emmon's Sabouraud dextrose agar

Q: For `Fc1ccc(C(c2ccccc2)(c2ccccc2F)n2ccnc2)cc1` (stereo not drawn) [UR-4056, 1-[(2-fluorophenyl) (4-fluorophenyl)phenylmethyl]-1H-imidazole], which MIC ([1]; DST agar) is on record?
A: 1 µg/mL (≈ 2.89 µM)

Q: What about the MIC [1, 26] of the same molecule?
A: 2.5 µg/mL (≈ 7.22 µM)

Q: And the MIC ([2]; DST agar)?
A: 0.5 µg/mL (≈ 1.44 µM)

Q: And the MIC [2, 26]?
A: 0.31 µg/mL (≈ 0.895 µM)

Q: And the MIC [3, 26]?
A: 5.00 µg/mL (≈ 14.4 µM)

Q: And the MIC ([3]; Meyerozyma guilliermondii, DST agar, read-out: MIC)?
A: 5 µg/mL (≈ 14.4 µM)

Q: And the MIC ([4]; SQ2210, DST agar)?
A: 1 µg/mL (≈ 2.89 µM)

Q: What about the MIC ([4]; SQ2210, Emmon's Sabouraud dextrose agar) of the same molecule?
A: 0.16 µg/mL (≈ 0.462 µM)

Q: What about the MIC ([5]; DST agar) of the same molecule?
A: 0.5 µg/mL (≈ 1.44 µM)

Q: What about the MIC [5, 26] of the same molecule?
A: 0.08 µg/mL (≈ 0.231 µM)

Q: And the MIC ([6]; ATCC9079, DST agar)?
A: 0.05 µg/mL (≈ 0.144 µM)

Q: And the MIC ([6]; ATCC9079, Emmon's Sabouraud dextrose agar)?
A: 0.63 µg/mL (≈ 1.82 µM)

Q: What about the MIC ([7]; DST agar) of the same molecule?
A: 0.025 µg/mL (≈ 0.0722 µM)

Q: What about the MIC [7, 26] of the same molecule?
A: 0.63 µg/mL (≈ 1.82 µM)

Q: What about the MIC ([8]; DST agar) of the same molecule?
A: 0.1 µg/mL (≈ 0.289 µM)

Q: What about the MIC [8, 26] of the same molecule?
A: 0.63 µg/mL (≈ 1.82 µM)

Q: What about the MIC ([9]; DST agar) of the same molecule?
A: 0.5 µg/mL (≈ 1.44 µM)

Q: What about the MIC [9, 26] of the same molecule?
A: 1.25 µg/mL (≈ 3.61 µM)

Q: And the MIC ([10]; ATCC9763, DST agar)?
A: 0.1 µg/mL (≈ 0.289 µM)

Q: What about the MIC ([10]; ATCC9763, Emmon's Sabouraud dextrose agar) of the same molecule?
A: 0.31 µg/mL (≈ 0.895 µM)

Q: What about the MIC ([11]; DST agar) of the same molecule?
A: 0.05 µg/mL (≈ 0.144 µM)

Q: What about the MIC [11, 26] of the same molecule?
A: 0.31 µg/mL (≈ 0.895 µM)

Q: And the MIC ([12]; DST agar)?
A: 0.1 µg/mL (≈ 0.289 µM)

Q: And the MIC [12, 26]?
A: 1.25 µg/mL (≈ 3.61 µM)

Q: What about the MIC ([13]; DST agar) of the same molecule?
A: 10 µg/mL (≈ 28.9 µM)

Q: What about the MIC [13, 26] of the same molecule?
A: 40 µg/mL (≈ 115 µM)

Q: And the MIC ([14]; DST agar)?
A: 0.25 µg/mL (≈ 0.722 µM)

Q: What about the MIC [14, 26] of the same molecule?
A: 0.16 µg/mL (≈ 0.462 µM)

Q: What about the MIC ([15]; DST agar) of the same molecule?
A: 0.1 µg/mL (≈ 0.289 µM)

Q: What about the MIC [15, 26] of the same molecule?
A: 1.25 µg/mL (≈ 3.61 µM)

Q: And the MIC ([16]; ATCC9129, DST agar)?
A: 0.05 µg/mL (≈ 0.144 µM)

Q: And the MIC ([16]; ATCC9129, Emmon's Sabouraud dextrose agar)?
A: 0.31 µg/mL (≈ 0.895 µM)

Q: What about the “MIC Distribution (number of strains)” value ([17]; MIC 0.3) of the same molecule?
A: 1 # of strains

Q: And the “MIC Distribution (number of strains)” value ([17]; MIC 2.5)?
A: 11 # of strains

Q: And the “MIC Distribution (number of strains)” value ([17]; MIC 5.0)?
A: 31 # of strains

Q: What about the “MIC Distribution (number of strains)” value ([17]; MIC column 1.2) of the same molecule?
A: 2 # of strains

Q: And the “MIC Distribution (number of strains)” value ([17]; MIC column 10)?
A: 5 # of strains

Q: What about the “MIC Distribution (number of strains)” value ([18]; MIC 0.3) of the same molecule?
A: 1 # of strains

Q: And the “MIC Distribution (number of strains)” value ([18]; MIC 0.6)?
A: 2 # of strains

Q: What about the “MIC Distribution (number of strains)” value ([18]; MIC column 1.2) of the same molecule?
A: 2 # of strains

Q: What about the “MIC Distribution (number of strains)” value ([19]; MIC 0.3) of the same molecule?
A: 1 # of strains

Q: And the “MIC Distribution (number of strains)” value ([19]; MIC 2.5)?
A: 2 # of strains

Q: What about the “MIC Distribution (number of strains)” value ([19]; MIC column 1.2) of the same molecule?
A: 1 # of strains

Q: What about the “MIC Distribution (number of strains)” value ([19]; MIC column 40 (first)) of the same molecule?
A: 1 # of strains

Q: What about the “MIC Distribution (number of strains)” value ([20]; MIC 0.038) of the same molecule?
A: 2 # of strains

Q: What about the “MIC Distribution (number of strains)” value ([20]; MIC 0.15) of the same molecule?
A: 1 # of strains

Q: What about the “MIC Distribution (number of strains)” value ([20]; MIC 0.3) of the same molecule?
A: 2 # of strains

Q: And the “MIC Distribution (number of strains)” value ([20]; MIC 0.6)?
A: 2 # of strains

Q: What about the “MIC Distribution (number of strains)” value ([20]; MIC column 1.2) of the same molecule?
A: 1 # of strains

Q: What about the “MIC Distribution (number of strains)” value ([20]; MIC column 10) of the same molecule?
A: 2 # of strains

Q: And the “MIC Distribution (number of strains)” value ([21]; MIC 0.6)?
A: 1 # of strains

Q: What about the “MIC Distribution (number of strains)” value ([21]; MIC 2.5) of the same molecule?
A: 4 # of strains

Q: And the “MIC Distribution (number of strains)” value ([21]; MIC 5.0)?
A: 13 # of strains

Q: What about the “MIC Distribution (number of strains)” value ([21]; MIC column 0.078) of the same molecule?
A: 1 # of strains

Q: What about the “MIC Distribution (number of strains)” value ([21]; MIC column 1.2) of the same molecule?
A: 3 # of strains

Q: And the “MIC Distribution (number of strains)” value ([21]; MIC column 10)?
A: 8 # of strains

Q: What about the “MIC Distribution (number of strains)” value ([22]; MIC 0.3) of the same molecule?
A: 4 # of strains

Q: And the “MIC Distribution (number of strains)” value ([22]; MIC 2.5)?
A: 4 # of strains

Q: What about the “MIC Distribution (number of strains)” value ([22]; MIC column 1.2) of the same molecule?
A: 5 # of strains

Q: What about the “MIC Distribution (number of strains)” value ([23]; MIC 0.6) of the same molecule?
A: 1 # of strains

Q: And the “MIC Distribution (number of strains)” value ([23]; MIC 2.5)?
A: 1 # of strains

Q: What about the “MIC Distribution (number of strains)” value ([23]; MIC 5.0) of the same molecule?
A: 2 # of strains

Q: What about the “MIC Distribution (number of strains)” value ([23]; MIC column 10) of the same molecule?
A: 4 # of strains

Q: And the “MIC Distribution (number of strains)” value ([23]; MIC column 20)?
A: 1 # of strains

Q: And the “MIC Distribution (number of strains)” value ([23]; MIC column 40 (first))?
A: 1 # of strains

Q: And the “MIC Distribution (number of strains)” value ([24]; MIC 0.15)?
A: 1 # of strains

Q: And the “MIC Distribution (number of strains)” value ([24]; MIC 0.3)?
A: 2 # of strains

Q: And the “MIC Distribution (number of strains)” value ([24]; MIC 0.6)?
A: 11 # of strains

Q: What about the “MIC Distribution (number of strains)” value ([24]; MIC column 1.2) of the same molecule?
A: 3 # of strains

Q: What about the “MIC Distribution (number of strains)” value ([25]; MIC 0.15) of the same molecule?
A: 4 # of strains

Q: And the “MIC Distribution (number of strains)” value ([25]; MIC 2.5)?
A: 1 # of strains

Q: What about the “MIC Distribution (number of strains)” value ([25]; MIC column 1.2) of the same molecule?
A: 1 # of strains
